These results are taken from patent US5364861A, “Optical isomers of 7-[3-(1,1-dialkylmethyl-1-amino-1-pyrrolidinyl]-quinolones and naphthyridones as antibacterial agents” (Warner-Lambert Company, priority 1993, dated 1994).

≈ marks a conversion by molar mass, not a printed value. Where two headings read alike, the source gives them in different places.

The subject of data set [1] is Prot. rettgeri M 1771. The data set can be described thus: in vitro antibacterial activity, microtitration dilution (MIC), Prot. rettgeri M 1771. Type of data set: cell-based. To be noted: Providencia rettgeri, M1771, read-out: minimum inhibiting concentration (MIC). The text has this:
(§1) The in vitro antibacterial activity is obtained when tested by the microtitration dilution method as described in Heifetz, et al., Antimicr. Agents & Chemother. 1974;6:124, which is incorporated herein by reference.
(§2) By use of the above methods, the following minimum inhibiting concentration values (MICs in μg/ml), PD50 's in mg/kg, no effect phototoxicity dose in mg/kg and the cytotoxicity IC50 in μg/mL were obtained for representative enantiomers of the invention and compounds of the prior art as shown in the table.

In data set [2] the test system is Strep. pyogenes C-203. The data set can be described thus: median protective dose in mice given lethal systemic infection, Strep. pyogenes. Type of data set: in vivo. To be noted: Streptococcus pyogenes, C203, Strep. pyogenes, single dose at time of challenge, route not given, read-out: median protective dose (PD50). As to the method:
(§3) The in vivo activity is obtained when the compounds are tested according to the procedure of Miller, et al (Proc. Soc. Exp. Biol. Med. 1944;57:261). The median protective dose (PD50) was determined in mice given lethal systemic infections. Single doses of compound were given at time of challenge.
as §2
(§4) The in vivo data as PD50 's are reported below the line of MICs for the same compound.

In data set [3] the test system is Strep. pyogenes C-203. Kind of data set: in vitro antibacterial activity, microtitration dilution (MIC), Strep. pyogenes C-203. Type of data set: cell-based. To be noted: Streptococcus pyogenes, C203, read-out: minimum inhibiting concentration (MIC).
Text: as §1, §2

Data set [4] concerns Strep. pneumoniae SV-1. Kind of data set: in vitro antibacterial activity, microtitration dilution (MIC), Strep. pneumoniae SV-1. Type of data set: cell-based. To be noted: Streptococcus pneumoniae, SV1, read-out: minimum inhibiting concentration (MIC).
Text: as §1, §2

For data set [5], the system named is Klebs. pneumoniae MGH-2. The data set can be described thus: in vitro antibacterial activity, microtitration dilution (MIC), Klebs. pneumoniae MGH-2. Type of data set: cell-based. The note with it: Klebsiella pneumoniae, MGH2, read-out: minimum inhibiting concentration (MIC).
Text: as §1, §2

For data set [6], the system named is Ent. cloacae MA2646. The data set can be described thus: in vitro antibacterial activity, microtitration dilution (MIC), Ent. cloacae MA2646. It counts as cell-based. The note with it: Enterobacter cloacae, read-out: minimum inhibiting concentration (MIC).
Text: as §1, §2

In data set [7] the test system is Strep. faecalis MGH-2. The data set can be described thus: in vitro antibacterial activity, microtitration dilution (MIC), Strep. faecalis MGH-2. To be noted: Enterococcus faecalis, MGH2, read-out: minimum inhibiting concentration (MIC). It counts as cell-based.
Text: as §1, §2

The test system of data set [8] is Esch. coli Vogel. The data set can be described thus: in vitro antibacterial activity, microtitration dilution (MIC), Esch. coli Vogel. Type of data set: cell-based. To be noted: Escherichia coli, read-out: minimum inhibiting concentration (MIC).
Text: as §1, §2

Data set [9] is described as follows: cytotoxicity, colony reduction of hamster V-79 cells. Type of data set: cell-based. To be noted: 3 hours treatment, colonies counted after 5 days, read-out: cytotoxicity IC50 (Cytotox). As to the method: The cytotoxicity data is obtained using hamster V-79 cells. The cells were suspended in tissue culture medium and grown overnight. Cells were treated with drug for 3 hours, washed free of drug and then replated, and the colonies counted after 5 days. The concentration of drug that reduced colonies by 50% relative to control was recorded.
as §2

Data set [10] deals with Staph. aureus UC-76. The data set can be described thus: in vitro antibacterial activity, microtitration dilution (MIC), Staph. aureus UC-76. The note with it: Staphylococcus aureus, UC76, read-out: minimum inhibiting concentration (MIC). It counts as cell-based.
Text: as §1, §2

A short description of data set [11]: in vivo. More on the design: species or system mice. To be noted: mouse, po. As to the method: The phototoxicity data is obtained using depilated mice. Compound was administered orally each day for four successive days, followed each day by 3 hours of […] radiation. The mice were examined for any positive signs (redness, erythema) relative to control animals. The no effect dose and the 50% effect dose were determined. By use of the above methods, the following minimum inhibiting concentration values (MICs in μg/ml), PD50 's in mg/kg, no effect phototoxicity dose in mg/kg and the cytotoxicity IC50 in μg/mL were obtained for representative enantiomers of the invention and compounds of the prior art as shown in the table.

Data set [12] deals with Staph. aureus H 228. The data set can be described thus: in vitro antibacterial activity, microtitration dilution (MIC), Staph. aureus H 228. It counts as cell-based. The note with it: Staphylococcus aureus, H228, read-out: minimum inhibiting concentration (MIC).
Text: as §1, §2

Data set [13] has as its system Pseud. aeruginosa UI-18. Kind of data set: in vitro antibacterial activity, microtitration dilution (MIC), Pseud. aeruginosa UI-18. It counts as cell-based. To be noted: Pseudomonas aeruginosa, UI18, read-out: minimum inhibiting concentration (MIC).
Text: as §1, §2

In data set [14] the test system is Esch. coli Vogel. Kind of data set: median protective dose in mice given lethal systemic infection, Esch. coli. It counts as in vivo. The note with it: Escherichia coli, single dose at time of challenge, route not given, read-out: median protective dose (PD50). As to the method:
as §3, §2, §4

Data set [15] relates to Pseud. aeruginosa UI-18. Kind of data set: median protective dose in mice given lethal systemic infection, Pseud. aeruginosa. It counts as in vivo. To be noted: Pseudomonas aeruginosa, UI18, Pseud. aeruginosa, single dose at time of challenge, route not given, read-out: median protective dose (PD50). As to the method:
as §3, §2, §4

The test system of data set [16] is Strep. pneumoniae SV-1. The data set can be described thus: median protective dose in mice given lethal systemic infection, Strep. pneumoniae. Type of data set: in vivo. To be noted: Streptococcus pneumoniae, SV1, Strep. pneumoniae, single dose at time of challenge, route not given, read-out: median protective dose (PD50). As to the method: as §3, §2, §4

As for `CC(C)(N)[C@H]1CCN(c2nc3c(cc2F)c(=O)c(C(=O)O)cn3C2CC2)C1.Cl` [Example 3, (S)-7-[3-(1-Amino-1-methylethyl)-1-pyrrolidinyl]-1-cyclopropyl-6-fluoro-1,4-dihydro-4-oxo-1,8-naphthyridine-3-carboxylic acid, monohydrochloride], the MIC in data set [1] was 0.8 µg/mL; in data set [3], 0.1 µg/mL; in data set [4], 0.05 µg/mL; in data set [5], 0.4 µg/mL; in data set [6], 0.2 µg/mL; in data set [7], 0.1 µg/mL. Moreover, the MIC in data set [8] was 0.2 µg/mL; in data set [10] it was 0.025 µg/mL; in data set [12], 0.1 µg/mL; in data set [13], 3.1 µg/mL. The ED50 turned out to be 32 mg/kg in [2] (first line below the MICs), 7 mg/kg in data set [2] (second line below the MICs), 10 mg/kg in data set [14] (first line below the MICs) and 3 mg/kg in [14] (second line below the MICs). Besides, in data set [9], the CC50 at 3 h came to 58 µg/mL. The compound also displayed an NOAEL in data set [11] of 30 mg/kg.

As for `CC(C)(N)[C@@H]1CCN(c2nc3c(cc2F)c(=O)c(C(=O)O)cn3C2CC2)C1` [Example 4], the MIC in data set [1] was found to be 0.4 µg/mL (≈ 1.07 µM); in [3], 0.013 µg/mL (≈ 0.0347 µM); in data set [4] it was 0.006 µg/mL (≈ 0.016 µM); in data set [5], 0.2 µg/mL (≈ 0.534 µM); in data set [6], 0.1 µg/mL (≈ 0.267 µM); in data set [7], 0.05 µg/mL (≈ 0.134 µM). Further, the MIC in data set [8] worked out at 0.05 µg/mL (≈ 0.134 µM); in data set [10], 0.003 µg/mL (≈ 0.00801 µM); in data set [12], 0.05 µg/mL (≈ 0.134 µM); in data set [13], 1.6 µg/mL (≈ 4.27 µM). The ED50 in data set [2] (first line below the MICs) was found to be 4 mg/kg; in data set [2] (second line below the MICs) it was 1 mg/kg; in data set [15] (first line below the MICs), 50 mg/kg; in data set [15] (second line below the MICs), 22 mg/kg; in data set [16] (first line below the MICs) it was 5 mg/kg; in data set [16] (second line below the MICs) it was 2 mg/kg. Also, the ED50 in data set [14] (first line below the MICs) was determined as 5 mg/kg; in data set [14] (second line below the MICs), 1 mg/kg. Besides, the CC50 at 3 h in data set [9] was determined as 130 µg/mL (≈ 347 µM). In addition, in data set [11], the NOAEL came out at 30 mg/kg.

Regarding `CC(C)(N)C1CCN(c2nc3c(cc2F)c(=O)c(C(=O)O)cn3C2CC2)C1` (stereo not drawn) [reference compound], the MIC amounted to 0.4 µg/mL (≈ 1.07 µM) in data set [1]; 0.025 µg/mL (≈ 0.0668 µM) in data set [3]; 0.025 µg/mL (≈ 0.0668 µM) in data set [4]; 0.2 µg/mL (≈ 0.534 µM) in data set [5]; 0.1 µg/mL (≈ 0.267 µM) in data set [6]; 0.05 µg/mL (≈ 0.134 µM) in data set [7]. The MIC in data set [8] amounted to 0.1 µg/mL (≈ 0.267 µM); in [10] it was 0.013 µg/mL (≈ 0.0347 µM); in [12], 0.05 µg/mL (≈ 0.134 µM); in data set [13], 1.6 µg/mL (≈ 4.27 µM). Moreover, the CC50 at 3 h in data set [9] was found to be 66 µg/mL (≈ 176 µM). Further, in [11], the NOAEL worked out at 30 mg/kg.

The NOAEL is the highest tested level that showed no adverse finding.
